Laboratory results taken from patent US20250002487A1, “HETEROCYCLIC COMPOUNDS AND USES THEREOF” (Ventus Therapeutics U.S., Inc., priority 2021, published 2025).

biological target: human-cGAS (h-cGAS) (Homo sapiens, UniProt Q8N884); experiment: hcGAS Kinase-Glo Assay; format: biochemical; conditions: 40 nM h-cGAS, 100 μM ATP, 100 μM GTP, 25 nM dsDNA, 3 h incubation, read-out: hcGAS potency IC50
Experimental: In some embodiments, the compounds of the instant disclosure may be tested for their human-cGAS (h-cGAS) inhibition activity using the methodology reported in Lama et al., “Development of human cGAS-specific small molecule inhibitors for repression of double stranded DNA (dsDNA)-triggered interferon expression”, Nature Communications 10, Article number: 2261 (2019), incorporated herein by reference. hcGAS Kinase-Glo Assay Compounds were tested for their human-cGAS (h-cGAS) inhibition activity using the methodology reported in Lama et al., “Development of human cGAS-specific small molecule inhibitors for repression of double stranded DNA (dsDNA)-triggered interferon expression”, Nature Communications 10. Article number: 2261 (2019), which is herein incorporated by reference in its entirety, with slight changes to some conditions as shown in Table B. The results of the assays, expressed in IC50 ranges are reported in Table C with the following designations: A represents an IC50 value <0.1 μM; B represents an IC50 value ≥0.1 μM and <0.5 μM; C represents an IC50 value ≥0.5 μM and <1.0 μM; D represents an IC50 value ≥1.0 μM. [table]

Chain of human-cGAS (h-cGAS) (Q8N884 whole entry): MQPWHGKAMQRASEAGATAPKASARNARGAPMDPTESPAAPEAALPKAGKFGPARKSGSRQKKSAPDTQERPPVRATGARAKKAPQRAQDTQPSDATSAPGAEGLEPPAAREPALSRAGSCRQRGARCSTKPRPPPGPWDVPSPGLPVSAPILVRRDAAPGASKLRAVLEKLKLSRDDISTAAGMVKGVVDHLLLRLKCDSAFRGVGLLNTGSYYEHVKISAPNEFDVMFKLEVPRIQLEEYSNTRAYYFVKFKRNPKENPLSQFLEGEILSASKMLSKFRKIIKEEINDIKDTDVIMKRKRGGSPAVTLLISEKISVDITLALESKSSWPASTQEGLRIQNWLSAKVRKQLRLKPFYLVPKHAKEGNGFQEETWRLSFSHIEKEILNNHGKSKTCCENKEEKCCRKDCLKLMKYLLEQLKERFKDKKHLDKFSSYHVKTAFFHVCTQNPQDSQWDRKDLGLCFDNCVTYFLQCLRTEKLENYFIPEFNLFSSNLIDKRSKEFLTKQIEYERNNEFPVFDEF

Row | IC50 [nM] | SMILES
1 | 500 to 1000 | CSc1nnc(NC(=O)c2nnc(N3CCC(C)(C)CC3)o2)s1 [Compound 120, 5-(4,4-dimethylpiperidin-1-yl)-N-(5-(methylthio)-1,3,4-thiadiazol-2-yl)-1,3,4-oxadiazole-2-carboxamide]
2 | ≥ 1000 | CNC(=O)c1ccc2c(C(=O)Nc3nnc(SC)s3)onc2c1 [Compound 193, N6-methyl-N3-(5-(methylthio)-1,3,4-thiadiazol-2-yl)benzo[c]isoxazole-3,6-dicarboxamide]
3 | 500 to 1000 | CSc1nnc(NC(=O)c2onc3c(Cl)cccc23)s1 [Compound 228, 7-chloro-N-[5-(methylsulfanyl)-1,3,4-thiadiazol-2-yl]-2,1-benzoxazole-3-carboxamide]
4 | 500 to 1000 | CSc1nnc(NC(=O)c2onc3ccc(Cl)cc23)s1 [Compound 229, 5-chloro-N-[5-(methylsulfanyl)-1,3,4-thiadiazol-2-yl]-2,1-benzoxazole-3-carboxamide]
5 | 100 to 500 | O=C(Nc1nnc(-c2ccccc2Cl)s1)c1cc(C2CCOCC2)no1 [Compound 38, N-(5-(2-chlorophenyl)-1,3,4-thiadiazol-2-yl)-3-(tetrahydro-2H-pyran-4-yl)isoxazole-5-carboxamide]
6 | ≥ 1000 | O=C(Nc1nnc(C(F)F)s1)c1onc2ccccc12 [Compound 18, N-(5-(difluoromethyl)-1,3,4-thiadiazol-2-yl)benzo[c]isoxazole-3-carboxamide]
7 | 500 to 1000 | CSc1nnc(NC(=O)c2cc(-c3ccnc4ccccc34)cc(=O)o2)s1 [Compound 247, N-(5-methylsulfanyl-1,3,4-thiadiazol-2-yl)-6-oxo-4-(4-quinolyl)pyran-2-carboxamide]
8 | 100 to 500 | O=C(Nc1nnc(-c2c(F)cccc2F)s1)c1onc2c1ccc1cccnc12 [Compound 8, N-(5-(2,6-difluorophenyl)-1,3,4-thiadiazol-2-yl)isoxazolo[4,3-h]quinoline-3-carboxamide]
9 | 500 to 1000 | CSc1nnc(NC(=O)c2nnc(N3CCCCC3)o2)s1 [Compound 108, N-(5-(methylthio)-1,3,4-thiadiazol-2-yl)-5-(piperidin-1-yl)-1,3,4-oxadiazole-2-carboxamide]
10 | < 100 | O=C(Nc1nnc(-c2ccccc2Cl)s1)c1onc2c1ccc1cccnc12 [Compound 7, N-(5-(2-chlorophenyl)-1,3,4-thiadiazol-2-yl)isoxazolo[4,3-h]quinoline-3-carboxamide]
11 | 100 to 500 | CSc1nnc(NC(=O)c2nnc(N3CCC(C(=O)O)C3)o2)s1 (centres unmarked) [Compound 112, 1-(5-{[5-(methylsulfanyl)-1,3,4-thiadiazol-2-yl]carbamoyl}-1,3,4-oxadiazol-2-yl)pyrrolidine-3-carboxylic acid]
12 | 100 to 500 | Cn1cc(-c2cc(C(=O)Nc3nnc(-c4ccccc4Cl)s3)on2)cn1 [Compound 52, N-(5-(2-chlorophenyl)-1,3,4-thiadiazol-2-yl)-3-(1-methyl-1H-pyrazol-4-yl)isoxazole-5-carboxamide]
13 | 500 to 1000 | CSc1nnc(NC(=O)c2onc3c2CCc2cccnc2-3)s1 [Compound 173, N-(5-(Methylthio)-1,3,4-thiadiazol-2-yl)-4,5-dihydroisoxazolo[4,3-h]quinoline-3-carboxamide]
14 | ≥ 1000 | Cn1nccc1-c1nnc(NC(=O)c2onc3ccccc23)s1 [Compound 146, N-(5-(1-methyl-1H-pyrazol-5-yl)-1,3,4-thiadiazol-2-yl)benzo[c]isoxazole-3-carboxamide]
15 | ≥ 1000 | CSc1nnc(NC(=O)c2onc3ccc(Cn4cc(C(=O)O)c(=O)c5ccccc54)cc23)s1 [Compound 184, 1-((3-((5-(Methylthio)-1,3,4-thiadiazol-2-yl)carbamoyl)benzo[c]isoxazol-5-yl)methyl)-4-oxo-1,4-dihydroquinoline-3-carboxylic acid]
16 | 500 to 1000 | CSc1nnc(NC(=O)c2nc(Cc3ccccc3)no2)s1 [Compound 261, 3-benzyl-N-(5-methylsulfanyl-1,3,4-thiadiazol-2-yl)-1,2,4-oxadiazole-5-carboxamide]
17 | 500 to 1000 | CSc1nnc(NC(=O)c2onc3c2ccc2ncccc23)s1 [Compound 271, N-(5-(methylthio)-1,3,4-thiadiazol-2-yl)isoxazolo[3,4-f]quinoline-3-carboxamide]
18 | 100 to 500 | Cc1c(-c2cc(C(=O)Nc3nnc(-c4ccccc4Cl)s3)on2)cnn1C [Compound 53, N-(5-(2-chlorophenyl)-1,3,4-thiadiazol-2-yl)-3-(1,5-dimethyl-1H-pyrazol-4-yl)isoxazole-5-carboxamide]
19 | ≥ 1000 | CSc1nnc(NC(=O)c2onc3ccc(Cc4ccc5c(c4)OCO5)cc23)s1 [Compound 185, 5-(Benzo[d][1,3]dioxol-5-ylmethyl)-N-(5-(methylthio)-1,3,4-thiadiazol-2-yl)benzo[c]isoxazole-3-carboxamide]

Row | IC50 [nM] | SMILES
20 | 100 to 500 | CSc1nnc(NC(=O)c2onc3c2ccc2cccnc23)s1 [Compound 94, N-(5-(methylthio)-1,3,4-thiadiazol-2-yl)isoxazolo[4,3-h]quinoline-3-carboxamide]
21 | 100 to 500 | CCc1nnc(NC(=O)c2onc3c2ccc2cccnc23)s1 [Compound 197, N-(5-ethyl-1,3,4-thiadiazol-2-yl)isoxazolo[4,3-h]quinoline-3-carboxamide]
22 | 100 to 500 | O=C(Nc1nnc(C(F)(F)F)s1)c1onc2c1ccc1cccnc12 [Compound 12, N-(5-(trifluoromethyl)-1,3,4-thiadiazol-2-yl)isoxazolo[4,3-h]quinoline-3-carboxamide]
23 | ≥ 1000 | CCSc1nnc(NC(=O)c2onc3ccccc23)s1 [Compound 70, N-(5-(ethylthio)-1,3,4-thiadiazol-2-yl)benzo[c]isoxazole-3-carboxamide]
24 | 100 to 500 | CSc1nnc(NC(=O)c2nnc(N3CCCC3c3ccccc3)o2)s1 (centres unmarked) [Compound 123, N-(5-(methylthio)-1,3,4-thiadiazol-2-yl)-5-(2-phenylpyrrolidin-1-yl)-1.3,4-oxadiazole-2-carboxamide]
25 | 100 to 500 | O=C(Nc1nnc(-c2ccccc2Cl)s1)c1cc(-c2ncccn2)no1 [Compound 154, N-(5-(2-Chlorophenyl)-1,3,4-thiadiazol-2-yl)-3-(pyrimidin-2-yl)isoxazole-5-carboxamide]
26 | 500 to 1000 | CSc1nnc(NC(=O)c2nnc(-c3c(F)cccc3F)o2)s1 [Compound 45, 5-(2,6-difluorophenyl)-N-(5-(methylthio)-1,3,4-thiadiazol-2-yl)-1,3,4-oxadiazole-2-carboxamide]
27 | 100 to 500 | COCc1cc(C(=O)Nc2nnc(-c3ccccc3Cl)s2)on1 [Compound 170, N-(5-(2-chlorophenyl)-1,3,4-thiadiazol-2-yl)-3-(methoxymethyl)isoxazole-5-carboxamide]
28 | ≥ 1000 | COc1cccc(-c2cc(C(=O)Nc3nnc(SC)s3)on2)c1 [Compound 212, 3-(3-methoxyphenyl)-N-[5-(methylsulfanyl)-1,3,4-thiadiazol-2-yl]-1,2-oxazole-5-carboxamide]
29 | ≥ 1000 | CSc1nnc(NC(=O)c2cncc(-c3ccccn3)c2)s1 [Compound 72, N-(5-(methylthio)-1,3,4-thiadiazol-2-yl)-[2,3′-bipyridine]-5′-carboxamide]
30 | 500 to 1000 | CSc1nnc(NC(=O)c2cc(-c3nccc4ccccc34)no2)s1 [Compound 150, 3-(Isoquinolin-1-yl)-N-(5-(methylthio)-1,3,4-thiadiazol-2-yl)isoxazole-5-carboxamide]
31 | ≥ 1000 | CSc1nnc(NC(=O)c2cn(CCC(C)(C)C)nn2)s1 [Compound 198, 1-(3,3-dimethylbutyl)-N-(5-(methylthio)-1,3,4-thiadiazol-2-yl)-1H-1,2,3-triazole-4-carboxamide]
32 | 100 to 500 | CSc1nnc(NC(=O)c2cc(C3CCCCC3)no2)s1 [Compound 84, 3-cyclohexyl-N-(5-(methylthio)-1,3,4-thiadiazol-2-yl)isoxazole-5-carboxamide]
33 | 500 to 1000 | CSc1nnc(NC(=O)c2onc3cc(F)ccc23)s1 [Compound 222, 6-fluoro-N-[5-(methylsulfanyl)-1,3,4-thiadiazol-2-yl]-2,1-benzoxazole-3-carboxamide]
34 | 100 to 500 | CC(C)c1cc(C(=O)Nc2nnc(-c3ccccc3Cl)s2)on1 [Compound 40, N-(5-(2-chlorophenyl)-1,3,4-thiadiazol-2-yl)-3-isopropylisoxazole-5-carboxamide]
35 | 500 to 1000 | CSc1nnc(NC(=O)c2cc(C3CC3)no2)s1 [Compound 17, 3-cyclopropyl-N-(5-(methylthio)-1,3,4-thiadiazol-2-yl)isoxazole-5-carboxamide]
36 | 500 to 1000 | CSc1nnc(NC(=O)c2cc(-c3ccc(C)cc3)no2)s1 [Compound 215, 3-(4-methylphenyl)-N-[5-(methylsulfanyl)-1,3,4-thiadiazol-2-yl]-1,2-oxazole-5-carboxamide]
37 | 500 to 1000 | CSc1nnc(NC(=O)c2nc(Nc3ccccc3)no2)s1 [Compound 265, N-(5-(methylthio)-1,3,4-thiadiazol-2-yl)-3-(phenylamino)-1,2,4-oxadiazole-5-carboxamide]
38 | ≥ 1000 | CSc1nnc(NC(=O)c2onc3ccc(CN4CC[C@@H](O)[C@H](O)C4)cc23)s1 (racemic) [rac-183, 5-((3,4-rac-trans-dihydroxypiperidin-1-yl)methyl)-N-(5-(methylthio)-1,3,4-thiadiazol-2-yl)benzo[c]isoxazole-3-carboxamide]
